According to patent US20170355705A1 (GlaxoSmithKline Intellectual Property (No.2) Limited, priority 2014, published 2017):

Target: T1, SIRT1 (Homo sapiens, UniProt Q96EB6)
T1 sequence (Q96EB6 1-747): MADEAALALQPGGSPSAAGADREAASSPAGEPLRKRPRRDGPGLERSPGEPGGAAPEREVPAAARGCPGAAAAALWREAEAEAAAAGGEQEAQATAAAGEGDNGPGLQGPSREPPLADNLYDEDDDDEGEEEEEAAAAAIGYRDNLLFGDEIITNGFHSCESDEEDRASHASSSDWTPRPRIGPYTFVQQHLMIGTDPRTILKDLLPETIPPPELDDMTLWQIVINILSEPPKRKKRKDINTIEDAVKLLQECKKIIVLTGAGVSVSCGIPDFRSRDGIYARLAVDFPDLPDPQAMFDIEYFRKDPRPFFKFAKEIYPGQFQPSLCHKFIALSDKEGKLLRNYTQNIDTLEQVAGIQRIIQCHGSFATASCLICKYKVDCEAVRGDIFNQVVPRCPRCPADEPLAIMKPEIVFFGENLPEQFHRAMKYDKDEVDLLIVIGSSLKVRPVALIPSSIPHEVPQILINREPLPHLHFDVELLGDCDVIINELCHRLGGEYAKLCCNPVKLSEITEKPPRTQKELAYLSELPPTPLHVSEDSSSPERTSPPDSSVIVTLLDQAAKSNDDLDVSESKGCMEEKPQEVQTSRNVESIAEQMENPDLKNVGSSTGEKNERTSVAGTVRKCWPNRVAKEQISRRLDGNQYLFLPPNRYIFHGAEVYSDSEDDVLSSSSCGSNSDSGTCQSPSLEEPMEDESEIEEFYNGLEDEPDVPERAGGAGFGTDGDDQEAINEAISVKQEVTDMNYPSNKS
Experiment: Trp mass spectrometry assay of SIRT1 activity (EC1.5, percent maximum activation)
Format: biochemical
Conditions: Trp mass spectrometry assay; for TRP Activity (EC1.5): EC1.5 = concentration giving 150% activation of SIRT1
Outline: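 N-terminal His-tagged human SIRT1 from E. coli BL21(DE3) was incubated 25 min with a 5TMR-labelled, p53-derived Trp peptide and NAD plus varying compound concentrations, then quenched with formic acid. Mass spectrometry quantified OAADPR or deacetylated peptide versus compound-free control, giving EC1.5 and percent maximum activation.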

[1] = percent maximum activation of SIRT1
[2] = 0.5 μM peptide substrate, 120 μM βNAD+, 10 nM SIRT1, 25 minutes at 25° C.

Structure (SMILES)	TRP Activity (EC1.5)	TRP MAX RESP (percent maximum fold activation) [1]	TRP MAX RESP (percent maximum fold activation) [2]
Cc1cc(-c2ccc3c(n2)N(C(=O)Nc2ncn(C)n2)[C@H]2CCN3C2)ccn1 [Example 143, (4S)-N-(1-methyl-1H-1,2,4-triazol-3-yl)-7-(2-methylpyridin-4-yl)-3,4-dihydro-1,4-methanopyrido[2,3-b][1,4]diazepine-5(2H)-carboxamide]	B (EC1.5 1-25 μM)	A (Fold activation ≧150%)	
Cc1ccc(-c2nc3c(cc2Br)N2CC[C@@H](C2)N3C(=O)Nc2ccccn2)cn1 [Example 2, (4S)-8-bromo-7-(6-methylpyridin-3-yl)-N-(pyridin-2-yl)-3,4-dihydro-1,4-methano pyrido[2,3-b][1,4]diazepine-5(2H)-carboxamide]	B (EC1.5 1-25 μM)	A (Fold activation ≧150%)	
Cc1cc(-c2ccc3c(n2)N(C(=O)Nc2cc(-c4c(C)nn(C)c4C)ccn2)[C@H]2CCN3C2)ccn1 [Example 365]			A (Fold activation ≧150%)
Cc1cc(-c2ccc3c(n2)N(C(=O)NCCc2ccccn2)[C@H]2CCN3C2)ccn1.Cl [Example 196, (4S)-7-(2-methylpyridin-4-yl)-N-(2-(pyridin-2-yl)ethyl)-3,4-dihydro-1,4-methanopyrido[2,3-b][1,4]diazepine-5(2H)-carboxamide hydrochloride]	C (EC1.5>25 μM)	B (Fold Activation <150%)	
O=C(Nc1cccc(OCCO)n1)N1c2nc(-c3cccc(C(F)(F)F)c3)c(Cl)cc2N2CC[C@H]1C2 [Example 79, (4S)-8-chloro-N-(6-(2-hydroxyethoxy)pyridin-2-yl)-7-(3-(trifluoromethyl)phenyl)-3,4-dihydro-1,4-methanopyrido[2,3-b][1,4]diazepine-5(2H)-carboxamide]	A (EC1.5<1 μM)	A (Fold activation ≧150%)	
Cl.O=C(Nc1cccc(OC[C@@H](O)CO)n1)N1c2nc(-c3cccc(C(F)(F)F)c3)c(Cl)cc2N2CC[C@H]1C2 [Example 68, (4S)-8-chloro-N-(6-((S)-2,3-dihydroxypropoxy)pyridin-2-yl)-7-(3-(trifluoromethyl)phenyl)-3,4-dihydro-1,4-methanopyrido[2,3-b][1,4]diazepine-5(2H)-carboxamide Hydrochloride]	A (EC1.5<1 μM)	A (Fold activation ≧150%)	
O=C(Nc1cncc(OCCCO)n1)N1c2nc(-c3cccc(C(F)(F)F)c3)ccc2N2CC[C@H]1C2 [Example 319]			A (Fold activation ≧150%)
Cc1cc(-c2nc3c(cc2C#N)N2CC[C@@H](C2)N3C(=O)Nc2ccccn2)ccn1 [Example 92, (4S)-8-cyano-7-(2-methylpyridin-4-yl)-N-(pyridin-2-yl)-3,4-dihydro-1,4-methanopyrido[2,3-b][1,4]diazepine-5(2H)-carboxamide]	B (EC1.5 1-25 μM)	A (Fold activation ≧150%)	
CCn1cc(-c2nc3c(cc2Cl)N2CC[C@@H](C2)N3C(=O)Nc2ccnc(OC[C@@H](O)CO)c2)cn1 [Example 199, (4S)-8-chloro-N-(2-((S)-2,3-dihydroxypropoxy)pyridin-4-yl)-7-(1-ethyl-1H-pyrazol-4-yl)-3,4-dihydro-1,4-methanopyrido[2,3-b][1,4]diazepine-5(2H)-carboxamide]	B (EC1.5 1-25 μM)	A (Fold activation ≧150%)	
Cc1cc(-c2nc3c(cc2Cl)N2CC[C@@H](C2)N3C(=O)Nc2cc(F)cc(-c3cccnc3)c2)ccn1 [Example 47, (4S)-8-chloro-N-(3-fluoro-5-(pyridin-3-yl)phenyl)-7-(2-methylpyridin-4-yl)-3,4-dihydro-1,4-methanopyrido[2,3-b][1,4]diazepine-5(2H)-carboxamide]	B (EC1.5 1-25 μM)	A (Fold activation ≧150%)	
N#Cc1ccc(-c2ccc3c(n2)N(C(=O)Nc2cccnc2)[C@H]2CCN3C2)cn1 [Example 245]			A (Fold activation ≧150%)
O=C(Nc1ccnc(O[C@@H]2CCOC2)n1)N1c2nc(-c3cccc(C(F)(F)F)c3)c(Cl)cc2N2CC[C@H]1C2 [Example 18, (4S)-8-chloro-N-(2-(((R)-tetrahydrofuran-3-yl)oxy)pyrimidin-4-yl)-7-(3-(trifluoromethyl)phenyl)-3,4-dihydro-1,4-methanopyrido[2,3-b][1,4]diazepine-5(2H)-carboxamide]	B (EC1.5 1-25 μM)	A (Fold activation ≧150%)	
Cc1cc(-c2nc3c(c(C)c2C)N2CC[C@@H](C2)N3C(=O)Nc2cccnc2)ccn1 [Example 91, (4S)-8,9-dimethyl-7-(2-methylpyridin-4-yl)-N-(pyridin-3-yl)-3,4-dihydro-1,4-methanopyrido[2,3-b][1,4]diazepine-5(2H)-carboxamide]	B (EC1.5 1-25 μM)	A (Fold activation ≧150%)	
